In BindingDB's records for doi:10.7270/Q2B856NC (Burnham Center For Chemical Genomics, 2011):

Molecular target: T1, Apelin receptor (Homo sapiens, UniProt P35414)
T1 sequence (P35414 whole entry): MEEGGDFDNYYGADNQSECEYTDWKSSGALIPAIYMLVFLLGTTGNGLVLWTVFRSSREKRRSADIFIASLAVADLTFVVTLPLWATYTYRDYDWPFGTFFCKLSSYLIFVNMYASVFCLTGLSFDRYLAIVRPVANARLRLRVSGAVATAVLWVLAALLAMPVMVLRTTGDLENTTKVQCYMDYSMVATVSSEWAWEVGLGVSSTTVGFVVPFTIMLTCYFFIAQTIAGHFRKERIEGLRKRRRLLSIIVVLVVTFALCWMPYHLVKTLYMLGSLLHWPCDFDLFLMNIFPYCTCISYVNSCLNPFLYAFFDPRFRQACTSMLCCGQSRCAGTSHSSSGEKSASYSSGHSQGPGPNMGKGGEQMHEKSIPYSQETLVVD
Test: APJ beta-arrestin recruitment antagonism, SAR follow-up, selectivity assay for CCR6 antagonist project, cell-based, luminescent, enzyme-fragment complementation (AID 588359)

Row | Structure (SMILES) | IC50
1 | CN1C(=O)C(C2CC(c3ccc(Cl)cc3)N=N2)C(=O)N(C)C1=O (stereo not drawn) [SMR000439471] | 7.22 µM
2 | CC(N=Nc1ccc2ccccc2n1)c1ccccc1O (stereo not drawn) [(6Z)-6-[1-[N'-(2-quinolyl)hydrazino]ethylidene]cyclohexa-2,4-dien-1-one] | 4.12 µM
3 | OCC12C=CC(O1)c1c2c(O)n(-c2ccccc2-c2ccccc2)c1O (stereo not drawn) [7-(hydroxymethyl)-2-(2-phenylphenyl)-4,7a-dihydro-3aH-octahydro-1H-4,7-epoxyisoindole-1,3-dione] | > 66.6 µM
